From ChEMBL document CHEMBL1134148, “Combinatorial synthesis of CCR5 antagonists” (Bioorg Med Chem Lett, 2001)
Calls of active or inactive are those of the source. The rule behind the calls is not given here.

How the values were obtained:
[1] = target: T1, C-C chemokine receptor type 5 (Homo sapiens, UniProt P51681); assay: Ability to inhibit binding of [125I]-MIP-1 alpha to C-C chemokine receptor type 5 in Chinese hamster ovary (CHO) cell membranes.
[2] = system: Human immunodeficiency virus 1; assay: Inhibitory concentration for viral growth over 7 days vs YU-2 strain of HIV-1 at 10 uM; format: functional; conditions: Human immunodeficiency virus 1, 168 h
[3] = target: T1, C-C chemokine receptor type 5; assay: Ability to inhibit binding of [125I]-MIP-1 alpha to C-C chemokine receptor type 5 in Chinese hamster ovary (CHO) cell membranes
[4] = target: T1, C-C chemokine receptor type 5; assay: Ability to inhibit binding of [125I]-MIP-1 alpha to C-C chemokine receptor type 5 in Chinese hamster ovary (CHO) cell membranes;NA means no significant activity.
[5] = system: Human immunodeficiency virus 1; assay: Inhibitory concentration for viral growth over 7 days vs YU-2 strain of HIV-1;NA means No significant activity at 10 uM.; format: functional, organism-based

T1 sequence (P51681 whole entry): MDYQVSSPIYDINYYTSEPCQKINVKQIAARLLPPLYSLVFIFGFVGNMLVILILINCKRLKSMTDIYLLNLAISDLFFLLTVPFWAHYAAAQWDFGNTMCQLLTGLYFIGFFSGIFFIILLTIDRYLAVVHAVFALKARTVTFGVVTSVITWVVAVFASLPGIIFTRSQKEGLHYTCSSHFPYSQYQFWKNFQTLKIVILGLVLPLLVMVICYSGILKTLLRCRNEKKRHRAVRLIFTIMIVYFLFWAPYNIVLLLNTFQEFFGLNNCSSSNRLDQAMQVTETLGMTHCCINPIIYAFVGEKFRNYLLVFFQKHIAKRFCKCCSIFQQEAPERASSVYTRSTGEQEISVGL

Row | IC50 [1] | IC50 [3] | SMILES | further results
1 | 4 nM |  | CN(CC(CCN1CCC(O)(CCCc2ccccc2)CC1)c1ccccc1)S(=O)(=O)c1ccc(-c2ccccn2)s1 (stereo unspecified) | IC95 [2]: 6200 nM
2 |  | 20 nM | O=S(=O)(c1cccs1)N1CC(CN2CCC(O)(CCCc3ccccc3)CC2)[C@@H](c2ccccc2)C1 (stereo partly specified) | 
3 |  | 60 nM | O=S(=O)(c1ccc(-c2ccccn2)s1)N1C[C@H](CN2CCC(CCCc3ccccc3)CC2)[C@@H](c2ccccc2)C1 | 
4 | 3 nM |  | CN(CC(CCN1CCC(CCCc2ccccc2)CC1)c1ccccc1)S(=O)(=O)c1cccs1 (stereo unspecified) | IC95 [5]: inactive
5 |  | 6.5 nM | c1ccc(CCCC2CCN(C[C@H]3CN(CC4CCCCC4)C[C@@H]3c3ccccc3)CC2)cc1 | 

Second part, the molecule before the results:

Row | SMILES | IC50 [1] | IC50 [3] | further results
6 | CN(CC(CCN1CCC(O)(CCCc2ccccc2)CC1)c1ccccc1)S(=O)(=O)c1cccs1 (stereo unspecified) | 6.5 nM |  | 
7 | O=S(=O)(c1ccc(-c2ccccn2)s1)N1C[C@H](CN2CCC(O)(CCCc3ccccc3)CC2)[C@@H](c2ccccc2)C1 |  | 41 nM | 
8 | CN(CC1CCCCC1)CC(CCN1CCC(CCCc2ccccc2)CC1)c1ccccc1 (stereo unspecified) |  |  | IC50 [4]: Not Active
9 | O=S(=O)(c1cccs1)N1C[C@H](CN2CCC(CCCc3ccccc3)CC2)[C@@H](c2ccccc2)C1 |  | 25 nM | 
10 | CN(CC(CCN1CCC(CCCc2ccccc2)CC1)c1ccccc1)S(=O)(=O)c1ccc(-c2ccccn2)s1 (stereo unspecified) | 2 nM |  | IC95 [2]: 3100 nM
11 | OC1(CCCc2ccccc2)CCN(C[C@H]2CN(CC3CCCCC3)C[C@@H]2c2ccccc2)CC1 |  | 1 nM | IC95 [2]: 580 nM
12 | CN(CC1CCCCC1)CC(CCN1CCC(O)(CCCc2ccccc2)CC1)c1ccccc1 (stereo unspecified) |  |  | IC50 [4]: Not Active
